Measurements published in US20240100170A1, “CYCLIC-AMP RESPONSE ELEMENT BINDING PROTEIN (CBP) AND/OR ADENOVIRAL E1A BINDING PROTEIN OF 300 KDA (P300) DEGRADATION COMPOUNDS AND METHODS OF USE” (CULLGEN (SHANGHAI), INC., priority 2020, published 2024).
Read-outs that look alike come from different tables or passages of the source.

Legend:
P300 = P300 (Homo sapiens, UniProt Q09472); assay: percentage of inhibition (degradation) of p300 at 10 nM, Tables 2-4; format: cell-based; set-up: LNCaP or 22RV1 cells that express CBP/P300 proteins were treated with GNE-781 or the bivalent compounds; endogenous in cells; host or cells: LNCaP or 22RV1 (not given); details: for inhibition at 0.01 µM: read-out: Degradation (10 nM)
Chain of P300 (Q09472 whole entry): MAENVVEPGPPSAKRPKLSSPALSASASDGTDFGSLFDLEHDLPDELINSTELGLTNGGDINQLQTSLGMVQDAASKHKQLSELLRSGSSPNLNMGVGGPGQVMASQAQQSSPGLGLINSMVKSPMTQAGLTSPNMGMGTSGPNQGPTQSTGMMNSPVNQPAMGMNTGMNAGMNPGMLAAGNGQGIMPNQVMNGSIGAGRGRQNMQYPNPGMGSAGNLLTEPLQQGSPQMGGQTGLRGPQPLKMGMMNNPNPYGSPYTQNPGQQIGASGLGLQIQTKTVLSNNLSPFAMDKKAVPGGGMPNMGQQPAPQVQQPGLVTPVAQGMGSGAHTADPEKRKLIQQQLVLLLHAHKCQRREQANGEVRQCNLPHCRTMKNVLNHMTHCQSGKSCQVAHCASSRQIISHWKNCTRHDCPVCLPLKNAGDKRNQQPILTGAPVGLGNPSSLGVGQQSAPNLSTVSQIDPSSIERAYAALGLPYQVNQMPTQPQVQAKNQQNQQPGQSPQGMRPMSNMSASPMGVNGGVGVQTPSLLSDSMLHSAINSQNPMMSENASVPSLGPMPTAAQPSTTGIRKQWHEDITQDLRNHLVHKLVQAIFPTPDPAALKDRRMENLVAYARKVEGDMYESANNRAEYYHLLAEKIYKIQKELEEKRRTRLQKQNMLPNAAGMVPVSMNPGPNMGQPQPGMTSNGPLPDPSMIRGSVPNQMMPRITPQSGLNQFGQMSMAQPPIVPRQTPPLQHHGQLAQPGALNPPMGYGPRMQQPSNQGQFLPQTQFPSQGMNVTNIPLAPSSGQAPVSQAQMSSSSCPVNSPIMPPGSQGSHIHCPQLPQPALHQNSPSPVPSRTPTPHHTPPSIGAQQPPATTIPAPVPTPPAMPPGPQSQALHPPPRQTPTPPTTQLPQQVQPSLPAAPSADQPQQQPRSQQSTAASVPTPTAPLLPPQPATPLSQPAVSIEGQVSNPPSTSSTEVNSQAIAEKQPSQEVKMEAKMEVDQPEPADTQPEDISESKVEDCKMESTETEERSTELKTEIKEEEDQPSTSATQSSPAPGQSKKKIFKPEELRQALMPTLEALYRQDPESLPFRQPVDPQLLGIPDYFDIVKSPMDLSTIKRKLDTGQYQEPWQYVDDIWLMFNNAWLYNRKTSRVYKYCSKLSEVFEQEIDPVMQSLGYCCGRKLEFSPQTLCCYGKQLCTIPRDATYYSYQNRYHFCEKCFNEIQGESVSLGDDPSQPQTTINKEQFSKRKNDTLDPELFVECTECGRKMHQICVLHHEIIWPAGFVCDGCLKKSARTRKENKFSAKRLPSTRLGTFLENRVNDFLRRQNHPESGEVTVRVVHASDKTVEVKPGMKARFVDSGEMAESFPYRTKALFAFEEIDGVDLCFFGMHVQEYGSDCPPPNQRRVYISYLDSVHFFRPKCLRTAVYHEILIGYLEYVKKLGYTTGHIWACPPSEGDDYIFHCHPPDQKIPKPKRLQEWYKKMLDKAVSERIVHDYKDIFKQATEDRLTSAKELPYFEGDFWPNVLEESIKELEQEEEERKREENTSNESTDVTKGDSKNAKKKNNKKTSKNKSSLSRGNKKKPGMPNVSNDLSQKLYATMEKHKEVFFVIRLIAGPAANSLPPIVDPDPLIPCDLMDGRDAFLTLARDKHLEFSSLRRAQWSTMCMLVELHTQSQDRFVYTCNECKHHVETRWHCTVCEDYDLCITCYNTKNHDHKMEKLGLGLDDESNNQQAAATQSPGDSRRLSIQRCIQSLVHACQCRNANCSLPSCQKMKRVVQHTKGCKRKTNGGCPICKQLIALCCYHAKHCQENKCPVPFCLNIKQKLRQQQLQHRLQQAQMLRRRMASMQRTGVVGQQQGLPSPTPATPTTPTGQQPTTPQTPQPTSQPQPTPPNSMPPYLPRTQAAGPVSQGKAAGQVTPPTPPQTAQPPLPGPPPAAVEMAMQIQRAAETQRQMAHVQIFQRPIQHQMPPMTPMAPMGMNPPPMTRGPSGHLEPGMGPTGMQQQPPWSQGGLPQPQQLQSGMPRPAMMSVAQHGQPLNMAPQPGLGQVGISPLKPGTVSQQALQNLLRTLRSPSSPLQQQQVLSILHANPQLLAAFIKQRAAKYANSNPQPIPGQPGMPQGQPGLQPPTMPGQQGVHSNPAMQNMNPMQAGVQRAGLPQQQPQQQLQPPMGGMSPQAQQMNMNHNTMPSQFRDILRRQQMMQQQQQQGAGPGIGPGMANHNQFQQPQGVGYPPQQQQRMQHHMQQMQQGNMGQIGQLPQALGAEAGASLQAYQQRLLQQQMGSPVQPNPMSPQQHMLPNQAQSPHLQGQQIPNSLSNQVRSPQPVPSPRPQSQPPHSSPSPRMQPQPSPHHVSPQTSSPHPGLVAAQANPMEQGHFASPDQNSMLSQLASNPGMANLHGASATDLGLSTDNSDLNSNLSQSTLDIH
Experimental: Cultured cells or tissue chunks were washed with cold PBS once and lysed in cold RIPA buffer supplemented with protease inhibitors and phosphatase inhibitors (Beyotime Biotechnology). The solutions were then incubated at 4° C. for 30 minutes with gentle agitation to fully lyse cells. Cell lysates were centrifuged at 13,000 rpm for 10 minutes at 4° C. and pellets were discarded. Total protein concentrations in the lysates were determined by BCA assays (Beyotime Biotechnology). Cell lysates were mixed with Laemmli loading buffer to 1 X and heated at 99° C. for 5 min. Proteins were resolved on SDS-PAGE and visualized by chemiluminescence. Images were taken by a ChemiDoc MP Imaging system (Bio-Rad). Protein bands were quantitated using the accompanied software provided by Bio-Rad.

[1] = tested on: LNCaP prostate cancer cell; assay: LNCaP cell viability (CellTiter-Glo); format: cell-based; details: Homo sapiens, 72 h, LNCaP cell viability, 3 days, CellTiter-Glo
Experimental: LNCaP cells seeded in 96-well plates were treated with 10 μM GNE-781 or selected bivalent compounds, i.e. P-001, P-002, and P-019, following a 12-point 3-fold serial dilution. Three days after treatment, cell viability was determined using the CellTiter-Glo kit (Promega) following manufacturer's instructions. Cell viability was normalized to the mean values of 3 replicates of untreated cells. Dose-dependent response was analyzed following the least-squares non-linear regression method using the GraphPad Prism 5.0 software.
LNCaP (clone FGC), 22RV1 and other cells were cultured at 37° C. with 5% CO 2 in RPMI 1640 Medium supplemented with 10% fetal bovine serum. Cells were authenticated using the short tandem repeat (STR) assays. Mycoplasma test results were negative.
Cells were seeded at a density of 5000 cells per well in 96-well assay plates and treated with test compounds following a 12-point 3-fold serial dilution. Three days later, cell viability was determined using the CellTiter-Glo assay kit according to the manufactureR's instructions. The dose-response curves were determined and IC50 values were calculated using the GraphPad Prism software following a nonlinear regression (least squares fit) method.

| Structure (SMILES) | inhibition at 0.01 µM (P300; p300, 10 nM, Table 4) [%] | IC50 ([1]; Table 4) [nM] | IC50 ([1]; Table 3) [nM] | also measured |
| --- | --- | --- | --- | --- |
| CC(=O)N1CCc2c(c(N3CCCc4cc(-c5cnn(C)c5)c(C(F)F)cc43)nn2C2CCN(C(=O)CCCN3CCN(CCCc4cccc5c4n(C)c(=O)n5C4CCC(=O)NC4=O)CC3)CC2)C1 (centres unmarked) [P-225, 3-(4-(3-(4-(4-(4-(5-Acetyl-3-(7-(difluoromethyl)-6-(1-methyl-1H-pyrazol-4-yl)-3,4-dihydroquinolin-1(2H)-yl)-4,5,6,7-tetrahydro-1H-pyrazolo[4,3-c]pyridin-1-yl)piperidin-1-yl)-4-oxobutyl)piperazin-1-yl)propyl)-3-methyl-2-oxo-2,3-dihydro-1H-benzo[d]imidazol-1-yl)piperidine-2,6-dione] | 50 to 80 | 43.4 | – | – |
| CC(=O)N1CCc2c(c(N3CCCc4cc(-c5cnn(C)c5)c(C(F)F)cc43)nn2C2CCN(Cc3ccc(COc4cccc5c4C(=O)N(C4CCC(=O)NC4=O)C5)cc3)CC2)C1 (centres unmarked) [P-194, 3-(7-((4-((4-(5-acetyl-3-(7-(difluoromethyl)-6-(1-methyl-1H-pyrazol-4-yl)-3,4-dihydroquinolin-1(2H)-yl)-4,5,6,7-tetrahydro-1H-pyrazolo[4,3-c]pyridin-1-yl)piperidin-1-yl)methyl)benzyl)oxy)-1-oxoisoindolin-2-yl)piperidine-2,6-dione] | > 80 | 4.9 | – | – |
| CC(=O)N1CCc2c(c(N3CCCc4cc(-c5cnn(C)c5)c(C(F)F)cc43)nn2C2CCN(CCN3CCC(C#Cc4cccc5c4n(C)c(=O)n5C4CCC(=O)NC4=O)CC3)CC2)C1 (centres unmarked) [P-251, 3-(4-((1-(2-(4-(5-acetyl-3-(7-(difluoromethyl)-6-(1-methyl-1H-pyrazol-4-yl)-3,4-dihydroquinolin-1(2H)-yl)-4,5,6,7-tetrahydro-1H-pyrazolo[4,3-c]pyridin-1-yl)piperidin-1-yl)ethyl)piperidin-4-yl)ethynyl)-3-methyl-2-oxo-2,3-dihydro-1H-benzo[d]imidazol-1-yl)piperidine-2,6-dione] | – | 0.1 | – | inhibition at 0.01 µM (P300): > 80% |
| CC(=O)N1CCc2c(c(N3CCCc4cc(-c5cnn(C)c5)c(C(F)F)cc43)nn2C2CCN(C(=O)CCCCCn3c(=O)n(C4CCC(=O)NC4=O)c4ccccc43)CC2)C1 (centres unmarked) [P-107, 3-(3-(6-(4-(5-acetyl-3-(7-(difluoromethyl)-6-(1-methyl-1H-pyrazol-4-yl)-3,4-dihydroquinolin-1(2H)-yl)-4,5,6,7-tetrahydro-1H-pyrazolo[4,3-c]pyridin-1-yl)piperidin-1-yl)-6-oxohexyl)-2-oxo-2,3-dihydro-1H-benzo[d]imidazol-1-yl)piperidine-2,6-dione] | – | – | 20.4 | Degradation (10 nM) (P300; p300, 10 nM, Table 3): B (B: 50% ≤ Degradation < 80%) |
| CC(=O)N1CCc2c(c(N3CCCc4cc(-c5cnn(C)c5)c(C(F)F)cc43)nn2C2CCN(C(=O)CCCCCCCn3c(=O)n(C4CCC(=O)NC4=O)c4ccccc43)CC2)C1 (centres unmarked) [P-135, 3-(3-(8-(4-(5-acetyl-3-(7-(difluoromethyl)-6-(1-methyl-1H-pyrazol-4-yl)-3,4-dihydroquinolin-1(2H)-yl)-4,5,6,7-tetrahydro-1H-pyrazolo[4,3-c]pyridin-1-yl)piperidin-1-yl)-8-oxooctyl)-2-oxo-2,3-dihydro-1H-benzo[d]imidazol-1-yl)piperidine-2,6-dione] | – | – | 0.7 | Degradation (10 nM) (P300; p300, 10 nM, Table 3): A (A: Degradation ≥ 80%) |
| CC(=O)N1CCc2c(c(N3CCCc4cc(-c5cnn(C)c5)c(C(F)F)cc43)nn2C2CCN(CCN3CCC(COc4cccc5c4C(=O)N(C4CCC(=O)NC4=O)C5=O)CC3)CC2)C1 (centres unmarked) [P-167, 4-((1-(2-(4-(5-acetyl-3-(7-(difluoromethyl)-6-(1-methyl-1H-pyrazol-4-yl)-3,4-dihydroquinolin-1(2H)-yl)-4,5,6,7-tetrahydro-1H-pyrazolo[4,3-c]pyridin-1-yl)piperidin-1-yl)ethyl)piperidin-4-yl)methoxy)-2-(2,6-dioxopiperidin-3-yl)isoindoline-1,3-dione] | – | – | 92 | Degradation (10 nM) (P300; p300, 10 nM, Table 3): D (D: Degradation < 20%) |
| CC(=O)N1CCc2c(c(N3CCCc4cc(-c5cnn(C)c5)c(C(F)F)cc43)nn2C2CCN(CCN3CCC4(CC3)CN(c3cccc5c3C(=O)N(C3CCC(=O)NC3=O)C5=O)C4)CC2)C1 (centres unmarked) [P-245, 4-(7-(2-(4-(5-acetyl-3-(7-(difluoromethyl)-6-(1-methyl-1H-pyrazol-4-yl)-3,4-dihydroquinolin-1(2H)-yl)-4,5,6,7-tetrahydro-1H-pyrazolo[4,3-c]pyridin-1-yl)piperidin-1-yl)ethyl)-2,7-diazaspiro[3.5]nonan-2-yl)-2-(2,6-dioxopiperidin-3-yl)isoindoline-1,3-dione] | – | > 500 | – | inhibition at 0.01 µM (P300): 20 to 50% |
| CNC(=O)N1CCc2c(c(N3CCCc4cc(-c5cnn(C)c5)c(C(F)F)cc43)nn2C2CCN(C(=O)CCOCCC(=O)N[C@H](C(=O)N3C[C@H](O)C[C@H]3C(=O)NCc3ccc(-c4scnc4C)cc3)C(C)(C)C)CC2)C1 [P-065, 3-(7-(difluoromethyl)-6-(1-methyl-1H-pyrazol-4-yl)-3,4-dihydroquinolin-1(2H)-yl)-1-(1-(3-(3-(((S)-1-((2S,4R)-4-hydroxy-2-((4-(4-methylthiazol-5-yl)benzyl)carbamoyl)pyrrolidin-1-yl)-3,3-dimethyl-1-oxobutan-2-yl)amino)-3-oxopropoxy)propanoyl)piperidin-4-yl)-N-methyl-1,4,6,7-tetrahydro-5H-pyrazolo[4,3-c]pyridine-5-carboxamide] | – | – | 74.5 | inhibition at 0.01 µM (P300; p300, 10 nM, Table 3): < 20% |

More lines, main results first:

| inhibition at 0.01 µM (P300; p300, 10 nM, Table 4) [%] | IC50 ([1]; Table 4) [nM] | Structure (SMILES) | IC50 ([1]; Table 3) [nM] | also measured |
| --- | --- | --- | --- | --- |
| < 20 | 486 | CC(=O)N1CCc2c(c(N3CCCc4cc(-c5cnn(C)c5)c(C(F)F)cc43)nn2C2CCN(C(=O)CCCCCCCCC(=O)Nc3cccc(NC4CCC(=O)NC4=O)c3)CC2)C1 (centres unmarked) [P-264, 10-(4-(5-Acetyl-3-(7-(difluoromethyl)-6-(1-methyl-1H-pyrazol-4-yl)-3,4-dihydroquinolin-1(2H)-yl)-4,5,6,7-tetrahydro-1H-pyrazolo[4,3-c]pyridin-1-yl)piperidin-1-yl)-N-(3-((2,6-dioxopiperidin-3-yl)amino)phenyl)-10-oxodecanamide] | – | – |
| > 80 | 1.4 | CC(=O)N1CCc2c(c(N3CCCc4cc(-c5cnn(C)c5)c(C(F)F)cc43)nn2C2CCN(C(=O)CCCCCCNc3ccc(C(=O)NC4CCC(=O)NC4=O)c4ncccc34)CC2)C1 (centres unmarked) [P-240, 5-((7-(4-(5-acetyl-3-(7-(difluoromethyl)-6-(1-methyl-1H-pyrazol-4-yl)-3,4-dihydroquinolin-1(2H)-yl)-4,5,6,7-tetrahydro-1H-pyrazolo[4,3-c]pyridin-1-yl)piperidin-1-yl)-7-oxoheptyl)amino)-N-(2,6-dioxopiperidin-3-yl)quinoline-8-carboxamide] | – | – |
| > 80 | 0.3 | CC(=O)N1CCc2c(c(N3CCCc4cc(-c5cnn(C)c5)c(C(F)F)cc43)nn2C2CCN(C(=O)CN3CCC(CCc4cccc5c4n(C)c(=O)n5C4CCC(=O)NC4=O)CC3)CC2)C1 (centres unmarked) [P-228, 3-(4-(2-(1-(2-(4-(5-acetyl-3-(7-(difluoromethyl)-6-(1-methyl-1H-pyrazol-4-yl)-3,4-dihydroquinolin-1(2H)-yl)-4,5,6,7-tetrahydro-1H-pyrazolo[4,3-c]pyridin-1-yl)piperidin-1-yl)-2-oxoethyl)piperidin-4-yl)ethyl)-3-methyl-2-oxo-2,3-dihydro-1H-benzo[d]imidazol-1-yl)piperidine-2,6-dione] | – | – |
| > 80 | 12.9 | CC(=O)N1CCc2c(c(N3CCCc4cc(-c5cnn(C)c5)c(C(F)F)cc43)nn2C2CCN(C(=O)CCN3CCC(CCc4cccc5c4n(C)c(=O)n5C4CCC(=O)NC4=O)CC3)CC2)C1 (centres unmarked) [P-232, 3-(4-(2-(1-(3-(4-(5-Acetyl-3-(7-(difluoromethyl)-6-(1-methyl-1H-pyrazol-4-yl)-3,4-dihydroquinolin-1(2H)-yl)-4,5,6,7-tetrahydro-1H-pyrazolo[4,3-c]pyridin-1-yl)piperidin-1-yl)-3-oxopropyl)piperidin-4-yl)ethyl)-3-methyl-2-oxo-2,3-dihydro-1H-benzo[d]imidazol-1-yl)piperidine-2,6-dione] | – | – |
| < 20 | > 500 | CC(=O)N1CCc2c(c(N3CCCc4cc(-c5cnn(C)c5)c(C(F)F)cc43)nn2C2CCN(CCCN3CCN(c4cccc5c4C(=O)N(C4CCC(=O)NC4=O)C5=O)CC3)CC2)C1 (centres unmarked) [P-247, 4-(4-(3-(4-(5-Acetyl-3-(7-(difluoromethyl)-6-(1-methyl-1H-pyrazol-4-yl)-3,4-dihydroquinolin-1(2H)-yl)-4,5,6,7-tetrahydro-1H-pyrazolo[4,3-c]pyridin-1-yl)piperidin-1-yl)propyl)piperazin-1-yl)-2-(2,6-dioxopiperidin-3-yl)isoindoline-1,3-dione] | – | – |
